Laboratory results from ChEMBL document CHEMBL4808169, “Discovery of Potent and Fast-Acting Antimalarial Bis-1,2,4-triazines” (J Med Chem, 2021).
The source made the active and inactive calls. No cut-off for these calls is given here.

Legend:
[1] = Drug metabolism in rat liver microsomes assessed as oxygenated metabolite M+16(1) formation by LC-MS/MS(CID) analysis; assay type: ADME, Microsome
[2] = Drug metabolism in Sprague-Dawley rat urine assessed as oxygenated metabolite M+16(2) formation at 10 mg/kg, po by high-resolution mass spectrometry; assay type: ADME, organism-based; conditions: in vivo
[3] = Drug concentration in blood of NOD-SCID 1L2Rgamma mouse infected with Plasmodium falciparum 3D70087/N9 at 50 mg/kg, po measured at 24 hrs by LC-MS/MS analysis; assay type: ADME, organism-based; conditions: in vivo
[4] = AUC(0 to infinity) in Sprague-Dawley rat plasma at 3 mg/kg, iv measured up to 24 hrs by LC-MS analysis; assay type: ADME, organism-based; parameters: route intravenous, dose 3 mg/kg, time <=24
[5] = Intrinsic clearance in human hepatocytes assessed per million cells by UPLC-MS analysis; assay type: ADME, cell-based, Hepatocyte; conditions: read-out: CLH
[6] = Tmax in Sprague-Dawley rat plasma at 10 mg/kg, po administered via gavage measured up to 24 hrs by LC-MS analysis; assay type: ADME, organism-based
[7] = Ratio of drug level in blood to plasma in Sprague-Dawley rat at 3 mg/kg, iv administered as infusion for 10 mins measured after 1 hr by LC-MS analysis; assay type: ADME, organism-based; conditions: whole blood and plasma
Cytochrome P450 2C9 = Cytochrome P450 2C9 (Homo sapiens, UniProt P11712); assay: Inhibition of CYP2C9 in human liver microsomes assessed as reduction in […] activity by . high-pressure liquid chromatography-tandem mass spectrometry; assay type: ADME
Cytochrome P450 2C9, sequence (P11712 whole entry, the tested form may be a part): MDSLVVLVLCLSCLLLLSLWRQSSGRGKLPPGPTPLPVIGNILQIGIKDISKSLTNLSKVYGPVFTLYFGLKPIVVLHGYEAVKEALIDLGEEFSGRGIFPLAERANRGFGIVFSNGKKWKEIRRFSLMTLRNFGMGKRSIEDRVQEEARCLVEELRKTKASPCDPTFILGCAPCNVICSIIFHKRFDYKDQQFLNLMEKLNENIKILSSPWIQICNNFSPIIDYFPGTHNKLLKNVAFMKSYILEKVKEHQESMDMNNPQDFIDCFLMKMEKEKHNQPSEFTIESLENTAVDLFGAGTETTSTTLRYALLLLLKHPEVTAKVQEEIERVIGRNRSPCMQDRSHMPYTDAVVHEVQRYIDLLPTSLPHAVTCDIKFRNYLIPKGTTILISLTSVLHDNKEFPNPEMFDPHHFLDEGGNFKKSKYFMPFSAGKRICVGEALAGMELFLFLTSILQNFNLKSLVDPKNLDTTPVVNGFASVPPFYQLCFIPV

[8] = Apparent half life in Sprague-Dawley rat at 3 mg/kg administered as iv infusion for 10 mins measured up to 24 hrs by LC-MS analysis; assay type: ADME, organism-based; conditions: in vivo
[9] = Drug metabolism in Sprague-Dawley rat feces assessed as N-methyl-2-(3'-propoxy-5,5'-bi(1,2,4-triazin)-3-yloxy)ethanamine formation at 3 mg/kg, iv by high-resolution mass spectrometry; assay type: ADME, organism-based; conditions: in vivo
[10] = Drug metabolism in Sprague-Dawley rat urine assessed as oxygenated metabolite N-methyl-2-(3'-propoxy-5,5'-bi(1,2,4-triazin)-3-yloxy)ethanamine oxide formation at 10 mg/kg, po by high-resolution mass spectrometry; assay type: ADME, organism-based; conditions: in vivo
[11] = Drug metabolism in mouse hepatocytes assessed as 3'-propoxy-5,5'-bi(1,2,4-triazin)-3-ol formation by LC-MS/MS(CID) analysis; assay type: ADME, cell-based, Hepatocyte
[12] = Drug metabolism in rat liver microsomes assessed as oxygenated metabolite M+16(2) formation by LC-MS/MS(CID) analysis; assay type: ADME, Microsome
[13] = Intrinsic clearance in mouse liver microsomes in presence of NADPH by UPLC-MS analysis; assay type: ADME, Microsome
[14] = Tmax in Swiss mouse at 27 mg/kg, po measured up to 24 hrs by LC-MS analysis; assay type: ADME, organism-based; conditions: in vivo
[15] = Toxicity in Swiss mouse assessed as loss of mobility at 32 mg/kg/day administered for 4 days; assay type: organism-based; conditions: in vivo, 96 h, time 4 day
[16] = Drug metabolism in human hepatocytes assessed as oxygenated metabolite M+16(1) formation by LC-MS/MS(CID) analysis; assay type: ADME, cell-based, Hepatocyte
[17] = Drug metabolism in mouse liver microsomes assessed as oxygenated metabolite M+16(1) formation by LC-MS/MS(CID) analysis; assay type: ADME, Microsome
[18] = Drug metabolism in Sprague-Dawley rat plasma assessed as M-69 metabolite formation at 10 mg/kg, po by high-resolution mass spectrometry; assay type: ADME, organism-based; conditions: in vivo
[19] = Efflux ratio of apparent permeability in human Caco2 cells measured over 120 mins by LC-MS analysis; assay type: ADME, cell-based; conditions: Caco-2
[20] = Drug metabolism in rat liver microsomes assessed as formation of cleavage product M-69 in presence of NADPH by LC-MS/MS(CID) analysis; assay type: ADME, Microsome
[21] = Clearance in Sprague-Dawley rat plasma at 3 mg/kg, iv measured up to 24 hrs by LC-MS analysis; assay type: ADME, organism-based
[22] = Oral bioavailability in Swiss mouse at 27 mg/kg measured up to 24 hrs; assay type: ADME, organism-based; conditions: in vivo
[23] = Kinetic solubility of compound at pH 6.5 by nephelometry; assay type: physicochemical; conditions: buffer, read-out: Kinetic_solubility
[24] = Drug metabolism in human liver microsomes assessed as formation of cleavage product M-69 by LC-MS/MS(CID) analysis; assay type: ADME, Microsome
Plasmodium falciparum [25] = assay: Antimalarial activity against Plasmodium falciparum 3D7 infected in human red blood cells at 40 uM after 72 hrs by DAPI-staining based assay relative to control; assay type: functional
[26] = Oral availability in Sprague-Dawley rat at 10 mg/kg measured up to 24 hrs by LC-MS analysis; assay type: ADME, organism-based; conditions: in vivo
[27] = Apparent blood clearance in Sprague-Dawley rat at 3 mg/kg, iv measured up to 24 hrs by LC-MS analysis; assay type: ADME, organism-based; conditions: read-out: CL(app)
Plasmodium falciparum [28] = assay: Antiplasmodial activity against Plasmodium falciparum K1 by 3H-incorporation growth inhibition assay; assay type: functional, organism-based; conditions: pooled result: one value given for 11 cell lines, strains, targets or settings
[29] = Cmax in Sprague-Dawley rat plasma at 10 mg/kg, po administered via gavage measured at 0.25 to 2.5 hrs by LC-MS analysis; assay type: ADME, organism-based; parameters: route oral, time upper 2.5 hrs, dose 10 mg/kg, time lower 0.25 hrs
[30] = Drug metabolism in Sprague-Dawley rat urine assessed as oxygenated metabolite M+16(1) formation at 3 mg/kg, iv by high-resolution mass spectrometry; assay type: ADME, organism-based; conditions: in vivo
[31] = Drug metabolism in mouse liver microsomes assessed as formation of cleavage product M-69 in presence of NADPH by LC-MS/MS(CID) analysis; assay type: ADME, Microsome
[32] = Intrinsic clearance in rat hepatocytes assessed per million cells by UPLC-MS analysis; assay type: ADME, cell-based, Hepatocyte; conditions: read-out: CLH
Plasmodium falciparum [33] = assay: microbe, parasite or virus in culture; conditions: 3D7, 72 h
Description: Antimalarial activity against Plasmodium falciparum 3D7 infected in human red blood cells after 72 hrs by DAPI-staining based assay

Cytochrome P450 3A4 = Cytochrome P450 3A4 (Homo sapiens, UniProt P08684); assay: Inhibition of CYP3A4 in human liver microsomes assessed as reduction in midazolam 1-hydroxylase activity by . high-pressure liquid chromatography-tandem mass spectrometry; assay type: ADME
Cytochrome P450 3A4, sequence (P08684 whole entry): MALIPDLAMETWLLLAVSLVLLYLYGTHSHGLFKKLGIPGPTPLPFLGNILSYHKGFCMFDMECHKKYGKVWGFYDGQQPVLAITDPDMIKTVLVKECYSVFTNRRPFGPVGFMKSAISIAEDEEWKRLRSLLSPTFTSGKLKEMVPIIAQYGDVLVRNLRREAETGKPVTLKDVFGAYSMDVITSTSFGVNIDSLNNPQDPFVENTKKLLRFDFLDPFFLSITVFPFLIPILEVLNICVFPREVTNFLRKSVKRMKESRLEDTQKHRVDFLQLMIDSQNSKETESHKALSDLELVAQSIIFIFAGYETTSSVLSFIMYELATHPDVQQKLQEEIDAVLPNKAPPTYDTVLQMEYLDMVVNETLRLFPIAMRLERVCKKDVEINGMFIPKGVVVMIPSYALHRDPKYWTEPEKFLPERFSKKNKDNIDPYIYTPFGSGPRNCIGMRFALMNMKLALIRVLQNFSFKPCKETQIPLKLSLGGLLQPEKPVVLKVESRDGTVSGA

Plasmodium falciparum [34] = assay: Bactericidal activity against Plasmodium falciparum 3D7A at 10 times IC50; assay type: functional, organism-based
[35] = Selectivity ratio of CC50 for HEK293 cells to IC50 for Plasmodium falciparum 3D7; assay type: toxicity; conditions: human, read-out: Ratio CC50/IC50
[36] = Drug metabolism in human liver microsomes assessed as oxygenated metabolite N-methyl-2-(3'-propoxy-5,5'-bi(1,2,4-triazin)-3-yloxy)ethanamine oxide formation by LC-MS/MS(CID) analysis; assay type: ADME, Microsome
[37] = Drug metabolism in mouse liver microsomes assessed as N-methyl-2-(3'-propoxy-5,5'-bi(1,2,4-triazin)-3-yloxy)ethanamine formation by LC-MS/MS(CID) analysis; assay type: ADME, Microsome
[38] = Drug metabolism in Sprague-Dawley rat feces assessed as oxygenated metabolite N-methyl-2-(3'-propoxy-5,5'-bi(1,2,4-triazin)-3-yloxy)ethanamine oxide formation at 3 mg/kg, iv by high-resolution mass spectrometry; assay type: ADME, organism-based; conditions: in vivo
[39] = Protein binding in rat plasma measured after 6 hrs by LC-MS analysis based equilibrium dialysis method; assay type: ADME, cell-free; conditions: read-out: PPB (converted)
[40] = Drug metabolism in mouse hepatocytes assessed as oxygenated metabolite M+16(1) formation by LC-MS/MS(CID) analysis; assay type: ADME, cell-based, Hepatocyte

SMILES: CCCOc1nncc(-c2cnnc(OCCN(C)C)n2)n1
- Drug metabolism [1]: Metabolite_Detected
- Drug metabolism [2]: Metabolite_Detected
- Drug uptake [3]: < 1e-05 mg/mL
- AUC(0-inf) [4]: 0.658 µM·h
- hepatocyte CLint [5]: 3.6 µL/min/1e6 cells
- Tmax [6]: 1.3 h
- blood plasma ratio at 10 min [7]: 1.3
- IC50 (Cytochrome P450 2C9): > 20000 nM
- half-life [8]: 0.39 h
- Drug metabolism [9]: Metabolite_Detected
- Drug metabolism [10]: Metabolite_Detected
- Drug metabolism [11]: Metabolite_Detected
- Drug metabolism [12]: Metabolite_Detected
- microsomal CLint [13]: 42 µL/min/mg
- Tmax [14]: 1 h
- Activity [15]: Non-Toxic
- Drug metabolism [16]: Metabolite_Detected
- Drug metabolism [17]: Metabolite_Detected
- Drug metabolism [18]: Metabolite_Detected
- efflux ratio at 2 h [19]: 1.1
- Drug metabolism [20]: Metabolite_Detected
- clearance [21]: 249 mL/min/kg
- bioavailability [22]: 12%
- solubility kinetic [23]: > 100 µg/mL
- Drug metabolism [24]: Metabolite_Detected
- Activity (Plasmodium falciparum [25]): 100%
- bioavailability [26]: 7.49%
- clearance [27]: 205 mL/min/kg
- IC50 (Plasmodium falciparum [28]): 23 nM
- Cmax [29]: 89.4 nM
- Drug metabolism [30]: Metabolite_Detected
- Drug metabolism [31]: Metabolite_Detected
- hepatocyte CLint [32]: 10 µL/min/1e6 cells
- IC50 (Plasmodium falciparum [33]): 31 nM
- IC50 (Cytochrome P450 3A4): > 20000 nM
- Activity (Plasmodium falciparum [34]): Active
- selectivity ratio [35]: > 1000
- Drug metabolism [36]: Metabolite_Detected
- Drug metabolism [37]: Metabolite_Detected
- Drug metabolism [38]: Metabolite_Detected
- fraction unbound at 6 h [39]: 0.78
- Drug metabolism [40]: Metabolite_Detected
